In patent US8889682B2, “Inhibitors of bruton'S tyrosine kinase” (Hoffmann-La Roche Inc., priority 2011, dated 2014):

Tested on: B cell receptor-mediated activation of B cells in human blood (CD69 expression)
Assay: Inhibition of B cell activation in whole blood measured by CD69 expression
Type: cell-based
Conditions: anti-IgM stimulation, 20 hours, CD69-positive cells that are also CD20-positive, read-out: HWB IC50
Protocol: Inhibition of B Cell Activation in Whole Blood Measured by CD69 Expression
A procedure to test the ability of Btk inhibitors to suppress B cell receptor-mediated activation of B cells in human blood is as follows:
Human whole blood (HWB) is obtained from healthy volunteers, with the following restrictions: 24 hr drug-free, non-smokers. Blood is collected by venipuncture into Vacutainer tubes anticoagulated with sodium heparin. Test compounds are diluted to ten times the desired starting drug concentration in PBS […], followed by three-fold serial dilutions in 10% DMSO in PBS to produce a nine point dose-response curve. […] HWB (100 μl) is added to each well, and after mixing the plates are incubated at 37 C, 5% CO2, 100% humidity for 30 minutes.
Included are induced control, unstained and single stains for compensation adjustments and initial voltage settings. […] Supernatants are removed via suction and the remaining pellets are lysed again with another 1 ml of 1× Pharmingen Lyse Buffer, and plates are spun down as before. Supernatants are aspirated and remaining pellets are washed in FACs buffer (PBS+1% FBS). […] Samples are transferred to a 96 well plate suitable to be run on the HTS 96 well system on the BD LSR II flow cytometer.
Using appropriate excitation and emission wavelengths for the fluorophores used, data are acquired and percent positive cell values are obtained using Cell Quest Software. Results are initially analyzed by FACS analysis software (Flow Jo).

In order of rising IC50:
1. Cn1nc(-c2ccnc(-n3ncc4cc(C(C)(C)C)cc(F)c4c3=O)c2CO)cc(Nc2ccc(OC(C)(C)CN3CCC3)cn2)c1=O [Compound I-15, 2-(4-{5-[5-(2-Azetidin-1-yl-1,1-dimethyl-ethoxy)-pyridin-2-ylamino]-1-methyl-6-oxo-1,6-dihydro-pyridazin-3-yl}-3-hydroxymethyl-pyridin-2-yl)-6-tert-butyl-8-fluoro-2H-phthalazin-1-one]  3 nM
2. CN1CCC[C@H]1c1ccc(Nc2cc(-c3ccnc(-n4ncc5cc(C(C)(C)C)cc(F)c5c4=O)c3CO)nn(C)c2=O)nc1 [Compound I-2, 6-tert-Butyl-8-fluoro-2-(3-hydroxymethyl-4-{1-methyl-5-[5-((S)-1-methyl-pyrrolidin-2-yl)-pyridin-2-ylamino]-6-oxo-1,6-dihydro-pyridazin-3-yl}-pyridin-2-yl)-2H-phthalazin-1-one]  5 nM
3. CCN1CCC(c2ccc(Nc3cc(-c4ccnc(-n5ncc6cc(C(C)(C)C)cc(F)c6c5=O)c4CO)nn(C)c3=O)nc2)CC1 [Compound I-14, 6-tert-Butyl-2-{4-[5-(1′-ethyl-1′,2′,3′,4′,5′,6′-hexahydro-[3,4′]bipyridinyl-6-ylamino)-1-methyl-6-oxo-1,6-dihydro-pyridazin-3-yl]-3-hydroxymethyl-pyridin-2-yl}-8-fluoro-2H-phthalazin-1-one]  6 nM
4. CN(C)C(=O)c1ccc(Nc2cc(-c3ccnc(-n4ncc5cc(C(C)(C)C)cc(F)c5c4=O)c3CO)cn(C)c2=O)nc1 [Compound I-10, 6-[2′-(6-tert-Butyl-8-fluoro-1-oxo-1H-phthalazin-2-yl)-3′-hydroxymethyl-1-methyl-6-oxo-1,6-dihydro-[3,4′]bipyridinyl-5-ylamino]-N,N-dimethyl-nicotinamide]  9 nM
5. CN1CCC(c2ccc(Nc3cc(-c4ccnc(-n5ncc6cc(C(C)(C)C)cc(F)c6c5=O)c4CO)nn(C)c3=O)nc2)CC1 [Compound I-1, 6-tert-Butyl-8-fluoro-2-{3-hydroxymethyl-4-[1-methyl-5-(1′-methyl-1′,2′,3′,4′,5′,6′-hexahydro-[3,4′]bipyridinyl-6-ylamino)-6-oxo-1,6-dihydro-pyridazin-3-yl]-pyridin-2-yl}-2H-phthalazin-1-one]  11 nM
6. Cn1nc(-c2ccnc(-n3ncc4cc(C(C)(C)C)cc(F)c4c3=O)c2CO)cc(Nc2ccc(C(=O)N3CCOCC3)cn2)c1=O [Compound I-3, 6-tert-Butyl-8-fluoro-2-(3-hydroxymethyl-4-{1-methyl-5-[5-(morpholine-4-carbonyl)-pyridin-2-ylamino]-6-oxo-1,6-dihydro-pyridazin-3-yl}-pyridin-2-yl)-2H-phthalazin-1-one]  14 nM
7. Cn1cc(-c2ccnc(-n3ccc4cc(C5CC5)cc(F)c4c3=O)c2CO)cc(Nc2ccc(C(=O)N3CCOCC3)cn2)c1=O [Compound I-11, 2′-(6-Cyclopropyl-8-fluoro-1-oxo-1H-isoquinolin-2-yl)-3′-hydroxymethyl-1-methyl-5-[5-(morpholine-4-carbonyl)-pyridin-2-ylamino]-1H-[3,4′]bipyridinyl-6-one]  15 nM
8. Cn1nc(-c2ccnc(-n3ncc4cc(C(C)(C)C)cc(F)c4c3=O)c2CO)cc(Nc2cc3n(n2)CCN(C2COC2)C3)c1=O [Compound I-21, 6-tert-Butyl-8-fluoro-2-{3-hydroxymethyl-4-[1-methyl-5-(5-oxetan-3-yl-4,5,6,7-tetrahydro-pyrazolo[1,5-a]pyrazin-2-ylamino)-6-oxo-1,6-dihydro-pyridazin-3-yl]-pyridin-2-yl}-2H-phthalazin-1-one]  18 nM
9. CN1CCn2nc(Nc3cc(-c4ccnc(-n5ncc6cc(C(C)(C)C)ccc6c5=O)c4CO)nn(C)c3=O)cc2C1 [Compound I-19, 6-tert-Butyl-2-{3-hydroxymethyl-4-[1-methyl-5-(5-methyl-4,5,6,7-tetrahydro-pyrazolo[1,5-a]pyrazin-2-ylamino)-6-oxo-1,6-dihydro-pyridazin-3-yl]-pyridin-2-yl}-2H-phthalazin-1-one]  24 nM
10. Cn1cc(-c2ccnc(-n3ncc4cc(C(C)(C)C)cc(F)c4c3=O)c2CO)cc(Nc2ccc(C(=O)N3CCOCC3)cn2)c1=O [Compound I-8, 2′-(6-tert-Butyl-8-fluoro-1-oxo-1H-phthalazin-2-yl)-3′-hydroxymethyl-1-methyl-5-[5-(morpholine-4-carbonyl)-pyridin-2-ylamino]-1H-[3,4′]bipyridinyl-6-one]  27 nM
11. CN1CCC[C@H]1c1ccc(Nc2cc(-c3ccnc(-n4ncc5cc(C(C)(C)C)ccc5c4=O)c3CO)nn(C)c2=O)nc1 [Compound I-12, 6-tert-Butyl-2-(3-hydroxymethyl-4-{1-methyl-5-[5-((S)-1-methyl-pyrrolidin-2-yl)-pyridin-2-ylamino]-6-oxo-1,6-dihydro-pyridazin-3-yl}-pyridin-2-yl)-2H-phthalazin-1-one]  28 nM
12. Cn1nc(-c2ccnc(-n3ncc4cc(C(C)(C)C)ccc4c3=O)c2CO)cc(Nc2ccc(OC(C)(C)CN3CCC3)cn2)c1=O [Compound I-16, 2-(4-{5-[5-(2-Azetidin-1-yl-1,1-dimethyl-ethoxy)-pyridin-2-ylamino]-1-methyl-6-oxo-1,6-dihydro-pyridazin-3-yl}-3-hydroxymethyl-pyridin-2-yl)-6-tert-butyl-2H-phthalazin-1-one]  28 nM
13. CN1CCn2nc(Nc3cc(-c4ccnc(-n5ncc6cc(C(C)(C)C)cc(F)c6c5=O)c4CO)nn(C)c3=O)cc2C1 [Compound I-18, 6-tert-Butyl-8-fluoro-2-{3-hydroxymethyl-4-[1-methyl-5-(5-methyl-4,5,6,7-tetrahydro-pyrazolo[1,5-a]pyrazin-2-ylamino)-6-oxo-1,6-dihydro-pyridazin-3-yl]-pyridin-2-yl}-2H-phthalazin-1-one]  29 nM
14. CN(C)C(=O)c1ccc(Nc2cc(-c3ccnc(-n4ncc5cc(C(C)(C)C)cc(F)c5c4=O)c3CO)nn(C)c2=O)nc1 [Compound I-5, 6-{6-[2-(6-tert-Butyl-8-fluoro-1-oxo-1H-phthalazin-2-yl)-3-hydroxymethyl-pyridin-4-yl]-2-methyl-3-oxo-2,3-dihydro-pyridazin-4-ylamino}-N,N-dimethyl-nicotinamide]  30 nM
15. Cn1nc(Nc2cc(-c3ccnc(-n4ncc5cc(C(C)(C)C)cc(F)c5c4=O)c3CO)nn(C)c2=O)cc1CN1CCC1 [Compound I-17, 2-{4-[5-(5-Azetidin-1-ylmethyl-1-methyl-1H-pyrazol-3-ylamino)-1-methyl-6-oxo-1,6-dihydro-pyridazin-3-yl]-3-hydroxymethyl-pyridin-2-yl}-6-tert-butyl-8-fluoro-2H-phthalazin-1-one]  30 nM
16. CCN1CCn2nc(Nc3cc(-c4ccnc(-n5ncc6cc(C(C)(C)C)cc(F)c6c5=O)c4CO)nn(C)c3=O)cc2C1 [Compound I-22, 6-tert-Butyl-2-{4-[5-(5-ethyl-4,5,6,7-tetrahydro-pyrazolo[1,5-a]pyrazin-2-ylamino)-1-methyl-6-oxo-1,6-dihydro-pyridazin-3-yl]-3-hydroxymethyl-pyridin-2-yl}-8-fluoro-2H-phthalazin-1-one]  44 nM
17. CN1CCC(c2ccc(Nc3cc(-c4ccnc(-n5ncc6cc(C(C)(C)C)ccc6c5=O)c4CO)nn(C)c3=O)nc2)CC1 [Compound I-13, 6-tert-Butyl-2-{3-hydroxymethyl-4-[1-methyl-5-(1′-methyl-1′,2′,3′,4′,5′,6′-hexahydro-[3,4′]bipyridinyl-6-ylamino)-6-oxo-1,6-dihydro-pyridazin-3-yl]-pyridin-2-yl}-2H-phthalazin-1-one]  47 nM
18. CN1CCn2nc(Nc3cc(-c4ccnc(-n5ccc6cc(C7CC7)cc(F)c6c5=O)c4CO)nn(C)c3=O)cc2C1 [Compound I-20, 6-Cyclopropyl-8-fluoro-2-{3-hydroxymethyl-4-[1-methyl-5-(5-methyl-4,5,6,7-tetrahydro-pyrazolo[1,5-a]pyrazin-2-ylamino)-6-oxo-1,6-dihydro-pyridazin-3-yl]-pyridin-2-yl}-2H-isoquinolin-1-one]  74 nM
19. CN(C)C(=O)c1ccc(Nc2cc(-c3ccnc(-n4ccc5cc(C6CC6)cc(F)c5c4=O)c3CO)nn(C)c2=O)nc1 [Compound I-6, 6-{6-[2-(6-Cyclopropyl-8-fluoro-1-oxo-1H-isoquinolin-2-yl)-3-hydroxymethyl-pyridin-4-yl]-2-methyl-3-oxo-2,3-dihydro-pyridazin-4-ylamino}-N,N-dimethyl-nicotinamide]  77 nM
20. Cn1nc(-c2ccnc(-n3ncc4cc(C(C)(C)C)cc(F)c4c3=O)c2CO)cc(Nc2ccc(S(C)(=O)=O)cn2)c1=O [Compound I-4, 6-tert-Butyl-8-fluoro-2-{3-hydroxymethyl-4-[5-(5-methanesulfonyl-pyridin-2-ylamino)-1-methyl-6-oxo-1,6-dihydro-pyridazin-3-yl]-pyridin-2-yl}-2H-phthalazin-1-one]  95 nM
21. Cn1nc(-c2ccnc(-n3ncc4cc(C(C)(C)C)ccc4c3=O)c2CO)cc(Nc2ccc(C(=O)N3CCOCC3)cn2)c1=O [Compound I-7, 6-tert-Butyl-2-(3-hydroxymethyl-4-{1-methyl-5-[5-(morpholine-4-carbonyl)-pyridin-2-ylamino]-6-oxo-1,6-dihydro-pyridazin-3-yl}-pyridin-2-yl)-2H-phthalazin-1-one]  101 nM
